In ChEMBL document CHEMBL3632478, “Design, synthesis and biological evaluation of imidazopyridine/imidazopyrimidine-benzimidazole conjugates as potential anticancer agents” (Medchemcomm, 2015):
Values belong to the molecule of their own block, whether it stands above or below them. The source made the active and inactive calls. The calls are words filed in the database; no cut-off is given here.

Assays:
B16 = assay: Antiproliferative activity against mouse B16 cells after 48 hrs by MTT assay; type: functional, cell-based; conditions: B16, 48 h
DU-145 = assay: Antiproliferative activity against human DU145 cells after 48 hrs by MTT assay; type: functional, cell-based; conditions: DU-145, 48 h
A549 [1] = assay: Antiproliferative activity against human A549 cells after 48 hrs by MTT assay; type: functional, cell-based; conditions: A549, 48 h
HeLa = assay: Antiproliferative activity against human HeLa cells after 48 hrs by MTT assay; type: functional, cell-based
A549 [2] = assay: Induction of apoptosis in human A549 cells assessed as viable cells at 1 uM after 48 hrs by annexin V-FITC and propidium iodide double staining based flow cytometric analysis (reference value: 99.79%); type: functional; conditions: A549, 48 h, read-out: Activity
A549 [3] = assay: Induction of apoptosis in human A549 cells assessed as nuclear fragmentation at 1 uM after 48 hrs by Hoechst 33342 based fluorescent microscopic analysis; type: functional, cell-based
A549 [4] = assay: Induction of apoptosis in human A549 cells assessed as dead cells at 2 uM after 48 hrs by annexin V-FITC and propidium iodide double staining based flow cytometric analysis (Rvb =0.07%); type: functional
A549 [5] = assay: Induction of apoptosis in human A549 cells assessed as apoptotic bodies at 1 uM after 48 hrs by Hoechst 33342 based fluorescent microscopic analysis; type: functional, cell-based
A549 [6] = assay: Cell cycle arrest in human A549 cells assessed as accumulation at sub G1 phase at 2 uM after 48 hrs by propidium iodide based flow cytometry (reference value: 0.65%); type: functional
A549 [7] = assay: Induction of apoptosis in human A549 cells assessed as late apoptotic cells at 1 uM after 48 hrs by annexin V-FITC and propidium iodide double staining based flow cytometric analysis (reference value: 0.14%); type: functional
A549 [8] = assay: Induction of apoptosis in human A549 cells assessed as caspase-3 activation at 1 uM after 48 hrs by Ac-DEVD substrate based fluorescence assay relative to control; type: functional
A549 [9] = assay: Cell cycle arrest in human A549 cells assessed as accumulation at G0/G1 phase at 1 uM after 48 hrs by propidium iodide based flow cytometry (reference value: 85.63%); type: functional
A549 [10] = assay: Induction of apoptosis in human A549 cells assessed as dead cells at 1 uM after 48 hrs by annexin V-FITC and propidium iodide double staining based flow cytometric analysis (Rvb =0.07%); type: functional
A549 [11] = assay: Cell cycle arrest in human A549 cells assessed as accumulation at G2/M phase at 2 uM after 48 hrs by propidium iodide based flow cytometry (reference value: 10.39%); type: functional
A549 [12] = assay: Induction of apoptosis in human A549 cells assessed as early apoptotic cells at 1 uM after 48 hrs by annexin V-FITC and propidium iodide double staining based flow cytometric analysis (reference value: 0%); type: functional
A549 [13] = assay: Cell cycle arrest in human A549 cells assessed as accumulation at S phase at 2 uM after 48 hrs by propidium iodide based flow cytometry (reference value: 3.59%); type: functional
A549 [14] = assay: Induction of apoptosis in human A549 cells assessed as viable cells at 2 uM after 48 hrs by annexin V-FITC and propidium iodide double staining based flow cytometric analysis (reference value: 99.79%); type: functional; conditions: A549, 48 h, read-out: Activity
A549 [15] = assay: Inhibition of microtubule organization in human A549 cells at 1 uM after 48 hrs by immunofluorescence microscopic analysis; type: cell-based
Tubulin (Sus scrofa) = Tubulin (Sus scrofa) (UniProt P02554+P02550); assay: Inhibition of porcine brain tubulin polymerization at 3 uM after 1 hr by fluorescence assay
Chain of Tubulin (Sus scrofa) (P02550 whole entry, looked up): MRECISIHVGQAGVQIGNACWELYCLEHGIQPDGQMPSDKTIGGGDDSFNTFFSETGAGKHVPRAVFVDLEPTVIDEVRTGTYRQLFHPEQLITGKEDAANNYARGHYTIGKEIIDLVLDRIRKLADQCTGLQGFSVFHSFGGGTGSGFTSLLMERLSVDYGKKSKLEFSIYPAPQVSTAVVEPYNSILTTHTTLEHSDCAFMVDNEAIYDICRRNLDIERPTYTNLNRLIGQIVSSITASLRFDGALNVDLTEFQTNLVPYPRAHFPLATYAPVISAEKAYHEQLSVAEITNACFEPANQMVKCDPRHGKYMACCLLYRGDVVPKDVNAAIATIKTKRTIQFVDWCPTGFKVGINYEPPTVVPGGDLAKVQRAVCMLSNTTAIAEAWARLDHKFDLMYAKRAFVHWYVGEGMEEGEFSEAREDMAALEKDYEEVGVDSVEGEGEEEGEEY
Chain of Tubulin (Sus scrofa) (P02554 whole entry, looked up): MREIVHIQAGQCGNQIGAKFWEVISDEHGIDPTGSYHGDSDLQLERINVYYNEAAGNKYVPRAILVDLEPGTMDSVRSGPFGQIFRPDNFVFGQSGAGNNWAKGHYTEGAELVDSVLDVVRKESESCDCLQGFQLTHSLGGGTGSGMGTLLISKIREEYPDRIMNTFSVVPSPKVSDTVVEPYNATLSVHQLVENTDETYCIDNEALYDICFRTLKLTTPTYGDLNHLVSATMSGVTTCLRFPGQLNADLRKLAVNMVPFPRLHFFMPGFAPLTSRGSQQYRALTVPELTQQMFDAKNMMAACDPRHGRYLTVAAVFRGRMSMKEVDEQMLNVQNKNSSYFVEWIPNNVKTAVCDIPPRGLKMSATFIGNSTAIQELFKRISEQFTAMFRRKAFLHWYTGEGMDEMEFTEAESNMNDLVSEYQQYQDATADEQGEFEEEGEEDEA

A549 [16] = assay: Cell cycle arrest in human A549 cells assessed as accumulation at sub G1 phase at 1 uM after 48 hrs by propidium iodide based flow cytometry (reference value: 0.65%); type: functional
A549 [17] = assay: Induction of apoptosis in human A549 cells assessed as caspase-3 activation at 2 uM after 48 hrs by Ac-DEVD substrate based fluorescence assay relative to control; type: functional
A549 [18] = assay: Cell cycle arrest in human A549 cells assessed as accumulation at G0/G1 phase at 2 uM after 48 hrs by propidium iodide based flow cytometry (reference value: 85.63%); type: functional
A549 [19] = assay: Cell cycle arrest in human A549 cells assessed as accumulation at S phase at 1 uM after 48 hrs by propidium iodide based flow cytometry (reference value: 3.59%); type: functional
A549 [20] = assay: Induction of apoptosis in human A549 cells assessed as early apoptotic cells at 2 uM after 48 hrs by annexin V-FITC and propidium iodide double staining based flow cytometric analysis (reference value: 0%); type: functional
A549 [21] = assay: Cell cycle arrest in human A549 cells assessed as accumulation at G2/M phase at 1 uM after 48 hrs by propidium iodide based flow cytometry (reference value: 10.39%); type: functional
A549 [22] = assay: Induction of apoptosis in human A549 cells assessed as DNA fragmentation at 1 uM after 48 hrs by ethidium bromide based agarose gel electrophoresis; type: functional, cell-based
Tubulin = Tubulin (Sus scrofa, UniProt P02554+P02550); assay: Inhibition of porcine brain tubulin polymerization after 1 hr by fluorescence assay
A549 [23] = assay: Induction of apoptosis in human A549 cells assessed as […] condensation at 1 uM after 48 hrs by Hoechst 33342 based fluorescent microscopic analysis; type: functional, cell-based
A549 [24] = assay: Induction of apoptosis in human A549 cells assessed as late apoptotic cells at 2 uM after 48 hrs by annexin V-FITC and propidium iodide double staining based flow cytometric analysis (reference value: 0.14%); type: functional

- IC50 (B16): > 30 µM
- IC50 (DU-145): 12.6 µM
- IC50 (A549 [1]): 19.7 µM
- IC50 (HeLa): 20.3 µM
Compound: Fc1ccc(-c2nc3ncccn3c2-c2nc3ccc(Cl)cc3[nH]2)cc1

- IC50 (B16): 14.8 µM
- IC50 (DU-145): 15.9 µM
- IC50 (A549 [1]): 14.6 µM
- IC50 (HeLa): 17.6 µM
Compound: COc1ccc(-c2nc3ccccn3c2-c2nc3ccc(F)cc3[nH]2)cc1

- IC50 (B16): 16.6 µM
- IC50 (DU-145): 7.78 µM
- IC50 (A549 [1]): 11 µM
- IC50 (HeLa): 8.19 µM
Compound: Fc1ccc(-c2nc3ncccn3c2-c2nc3ccccc3[nH]2)cc1

Compound: c1ccc(-c2nc3ncccn3c2-c2nc3ccccc3[nH]2)cc1
- viability at 1 µM (A549 [2]): 91.9%
- Activity (A549 [3]): Active
- IC50 (B16): 10.5 µM
- Activity (A549 [4]): 0.18%
- Activity (A549 [5]): Active
- Activity (A549 [6]): 2.7%
- Activity (A549 [7]): 2.69%
- fold change (FC) (A549 [8]): 2
- Activity (A549 [9]): 83.5%
- Activity (A549 [10]): 0.35%
- Activity (A549 [11]): 33.8%
- Activity (A549 [12]): 5.08%
- Activity (A549 [13]): 2.88%
- viability at 2 µM (A549 [14]): 88.4%
- inhibition (A549 [15]): Active
- IC50 (DU-145): 2.34 µM
- IC50 (A549 [1]): 1.92 µM
- inhibition (Tubulin (Sus scrofa)): 60.5%
- IC50 (HeLa): 2.25 µM
- Activity (A549 [16]): 1.28%
- fold change (FC) (A549 [17]): 2
- Activity (A549 [18]): 64.8%
- Activity (A549 [19]): 3.71%
- Activity (A549 [20]): 10.25%
- Activity (A549 [21]): 12.6%
- Activity (A549 [22]): Active
- IC50 (Tubulin): 2.26 µM
- Activity (A549 [23]): Active
- Activity (A549 [24]): 1.2%

- IC50 (B16): 15.1 µM
- IC50 (DU-145): 10.2 µM
- IC50 (A549 [1]): > 30 µM
- IC50 (HeLa): 12.9 µM
Compound: Cc1ccc2nc(-c3c(-c4ccc(F)cc4)nc4ncccn34)[nH]c2c1

- IC50 (B16): > 30 µM
- IC50 (DU-145): > 30 µM
- IC50 (A549 [1]): > 30 µM
- IC50 (HeLa): 26.4 µM
Compound: COc1ccc(-c2nc3ccccn3c2-c2nc3ccc(C)cc3[nH]2)cc1

- IC50 (B16): 19.9 µM
- IC50 (DU-145): 5.62 µM
- IC50 (A549 [1]): 6.91 µM
- IC50 (HeLa): 15.8 µM
Compound: COc1ccc(-c2nc3ncccn3c2-c2nc3ccc(OC)cc3[nH]2)cc1

- IC50 (B16): > 30 µM
- IC50 (DU-145): > 30 µM
- IC50 (A549 [1]): > 30 µM
- IC50 (HeLa): > 30 µM
Compound: COc1ccc(-c2nc3ccccn3c2-c2nc3ccc(OC)cc3[nH]2)cc1

Compound: COc1ccc(-c2nc3ncccn3c2-c2nc3ccc(C)cc3[nH]2)cc1
- viability at 1 µM (A549 [2]): 90.2%
- Activity (A549 [3]): Active
- IC50 (B16): 3.63 µM
- Activity (A549 [4]): 0.07%
- Activity (A549 [5]): Active
- Activity (A549 [6]): 2.19%
- Activity (A549 [7]): 1.43%
- fold change (FC) (A549 [8]): 2
- Activity (A549 [9]): 82.68%
- Activity (A549 [10]): 0.22%
- Activity (A549 [11]): 29%
- Activity (A549 [12]): 8.18%
- Activity (A549 [13]): 3.63%
- viability at 2 µM (A549 [14]): 85.1%
- inhibition (A549 [15]): Active
- IC50 (DU-145): 7.08 µM
- IC50 (A549 [1]): 1.48 µM
- inhibition (Tubulin (Sus scrofa)): 61.1%
- IC50 (HeLa): 2.57 µM
- Activity (A549 [16]): 0.76%
- fold change (FC) (A549 [17]): 2
- Activity (A549 [18]): 59.33%
- Activity (A549 [19]): 3.65%
- Activity (A549 [20]): 13.49%
- Activity (A549 [21]): 11.7%
- Activity (A549 [22]): Active
- IC50 (Tubulin): 2.06 µM
- Activity (A549 [23]): Active
- Activity (A549 [24]): 1.3%

Compound: COC(=O)Nc1nc2cc(C(=O)c3cccs3)ccc2[nH]1 [NOCODAZOLE]
- viability at 1 µM (A549 [2]): 87%
- IC50 (B16): 0.69 µM
- Activity (A549 [7]): 1.29%
- Activity (A549 [9]): 63.76%
- Activity (A549 [10]): 0.04%
- Activity (A549 [12]): 11.71%
- IC50 (DU-145): 0.25 µM
- IC50 (A549 [1]): 1.62 µM
- inhibition (Tubulin (Sus scrofa)): 66.9%
- IC50 (HeLa): 2.23 µM
- Activity (A549 [16]): 9.23%
- Activity (A549 [19]): 0.69%
- Activity (A549 [21]): 24.28%

- IC50 (B16): 17 µM
- IC50 (DU-145): 4.89 µM
- IC50 (A549 [1]): 8.51 µM
- IC50 (HeLa): 6.91 µM
Compound: Fc1ccc2nc(-c3c(-c4ccccc4)nc4ncccn34)[nH]c2c1
